Assay results: patent US8106055B2, “Substituted amide compounds” (Gruenenthal GmbH, priority 2007, dated 2012)

Assays:
[1] = biological target: T1, serotonin (5-HT) reuptake (Rattus norvegicus, UniProt P31652); assay: Inhibition of serotonin (5HT) reuptake in synaptosomes from rat brain; format: biochemical; conditions: test concentration of 10 μM
T1 construct: synaptosomes are freshly isolated from areas of the rat brain; from tissue; host or cells: rat brain synaptosomes (P2 fraction)
Procedure, shortened: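 Compounds screened at 10 μM and reported as percent inhibition of serotonin uptake. Uptake measured in a freshly prepared P2 synaptosomal fraction from rat brain.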

[2] = biological target: T2, human μ opiate receptor (Homo sapiens, UniProt P35372); assay: Affinity for the human μ opiate receptor ([3H]-naloxone displacement, CHO-K1 receptor membrane preparation, SPA); format: binding; conditions: test concentration of 1 μM
T2 construct: purchased PerkinElmer Life Sciences, Zaventem, Belgium RB-HOM; host or cells: CHO-K1 cells (membrane preparation)
T2 sequence (P35372 whole entry): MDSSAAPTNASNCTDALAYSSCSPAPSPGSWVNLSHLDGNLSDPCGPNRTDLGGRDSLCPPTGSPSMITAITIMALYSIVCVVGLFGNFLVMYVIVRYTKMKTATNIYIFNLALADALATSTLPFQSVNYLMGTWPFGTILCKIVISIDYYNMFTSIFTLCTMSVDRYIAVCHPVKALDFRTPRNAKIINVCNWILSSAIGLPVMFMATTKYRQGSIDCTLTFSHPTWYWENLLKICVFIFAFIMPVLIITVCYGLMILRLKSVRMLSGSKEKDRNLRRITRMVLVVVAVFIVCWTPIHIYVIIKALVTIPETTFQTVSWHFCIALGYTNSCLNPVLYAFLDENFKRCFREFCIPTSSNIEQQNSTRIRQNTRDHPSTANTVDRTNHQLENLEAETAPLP
Procedure, shortened: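 Displacement of 1 nmol/l [3H]-naloxone measured by SPA counting after 90 min at room temperature, using human μ receptor CHO-K1 membrane preparation in Tris-HCl buffer with 0.06% BSA. Test substances at 1 μmol/l give % inhibition; dilution series yield IC50, then Ki (Cheng-Prusoff); non-specific binding with 100 μmol/l naloxone.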

T1 sequence (P31652 whole entry): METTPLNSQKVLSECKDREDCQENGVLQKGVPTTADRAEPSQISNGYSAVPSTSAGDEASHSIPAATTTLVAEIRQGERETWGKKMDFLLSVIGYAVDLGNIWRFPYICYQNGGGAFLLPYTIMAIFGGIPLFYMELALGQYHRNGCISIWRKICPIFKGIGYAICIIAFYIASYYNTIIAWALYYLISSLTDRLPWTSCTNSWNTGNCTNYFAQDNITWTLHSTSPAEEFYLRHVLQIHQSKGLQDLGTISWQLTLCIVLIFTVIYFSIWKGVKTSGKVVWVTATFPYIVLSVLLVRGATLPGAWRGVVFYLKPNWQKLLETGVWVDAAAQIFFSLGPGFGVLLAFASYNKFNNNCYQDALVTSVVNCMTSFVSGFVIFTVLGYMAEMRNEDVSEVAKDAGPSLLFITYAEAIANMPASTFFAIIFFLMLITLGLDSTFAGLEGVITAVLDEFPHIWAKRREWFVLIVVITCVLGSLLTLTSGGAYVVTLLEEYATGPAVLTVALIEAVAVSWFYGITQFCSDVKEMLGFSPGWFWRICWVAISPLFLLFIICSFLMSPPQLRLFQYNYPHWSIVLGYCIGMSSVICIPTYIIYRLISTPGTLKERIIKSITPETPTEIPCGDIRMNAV

| SMILES | 5-HT (inhibition of reuptake of serotonin, % inhibition) [1] [%] | μ (binding on the μ opioid receptor, % inhibition) [2] [%] |
| --- | --- | --- |
| COc1ccc(S(=O)(=O)N2CCCC2COCC(=O)NCCC2CCC(C(c3ccc(F)cc3)N(C)C)CC2)cc1 (centres unmarked) [Example 409] | 97 | 54 |
| CN(C)C(c1ccc(Cl)cc1)C1CCC(CCNC(=O)COC2CCCCC2N(C)S(=O)(=O)c2ccc(Cl)c(Cl)c2)CC1 (centres unmarked) [Example 410] | 78 | 50 |
| CN(C)C(c1ccc(Cl)cc1)C1CCC(CNC(=O)COCCN(C)S(=O)(=O)c2ccc(OC(F)(F)F)cc2)CC1 (centres unmarked) [Example 411] | 91 | 60 |
| COc1cc(C)c(S(=O)(=O)N2CCC(OCC(=O)NCCC3CCC(C(c4ccc(Cl)cc4)N(C)C)CC3)C2)c(C)c1C (centres unmarked) [Example 412] | 95 | 50 |
| CCN(CCOCC(=O)NCCC1CCC(C(c2ccc(F)cc2)N(C)C)CC1)S(=O)(=O)c1c(C)cc(OC)c(C)c1C (centres unmarked) [Example 413] | 96 | 55 |
| COc1cc(C)c(S(=O)(=O)N(CCOCC(=O)NCC2CCC(C(c3cccc(F)c3)N(C)C)CC2)Cc2ccccc2)c(C)c1C (centres unmarked) [Example 414] | 67 | 64 |
| CN(C)C(CCc1ccccc1)C1CCC(CNC(=O)COCC2CCCN2S(=O)(=O)c2ccc(Cl)c(Cl)c2)CC1 (centres unmarked) [Example 415] | 88 | 55 |
| Cc1cc(C)c(S(=O)(=O)N(C)CCOCC(=O)NCCC2CCC(C(c3ccc(Cl)cc3)N(C)C)CC2)c(C)c1 (centres unmarked) [Example 416] | 103 | 53 |
| COc1cc(C)c(S(=O)(=O)N2CCCC(OCC(=O)NCC3CCC(C(c4ccc(F)cc4)N(C)C)CC3)C2)c(C)c1C (centres unmarked) [Example 418] | 98 | 51 |
| COc1cc(C)c(S(=O)(=O)N(CCOCC(=O)NC2CCC(C(c3cccc(F)c3)N(C)C)CC2)Cc2ccccc2)c(C)c1C (centres unmarked) [Example 419] | 76 | 53 |
| COc1cc(C)c(S(=O)(=O)N(C)CCOCC(=O)NC2CCC(C(c3ccc(F)cc3)N(C)C)CC2)c(C)c1 (centres unmarked) [Example 422] | 81 | 43 |
| CN(C)C(c1ccc(F)cc1)C1CCC(NC(=O)COC2CCCN(S(=O)(=O)c3ccccc3)C2)CC1 (centres unmarked) [Example 423] | 95 | 47 |
| CN(C)C(c1ccc(F)cc1)C1CCC(CNC(=O)COCC2CCCN(S(=O)(=O)c3ccccc3)C2)CC1 (centres unmarked) [Example 424] | 96 | 39 |
| CN(C)C(c1ccc(Cl)cc1)C1CCC(CCNC(=O)COCC2CCCN(S(=O)(=O)c3ccccc3)C2)CC1 (centres unmarked) [Example 425] | 97 | 48 |
| CN(C)C(c1ccc(Cl)cc1)C1CCC(CCNC(=O)COCCN(Cc2ccccc2)S(=O)(=O)c2ccccc2)CC1 (centres unmarked) [Example 426] | 95 | 48 |
| COc1cc(C)c(S(=O)(=O)N2CCC(OCC(=O)NCC3CCC(C(c4ccc(F)cc4)N(C)C)CC3)C2)c(C)c1C (centres unmarked) [Example 427] | 94 | 50 |
| COc1cc(C)c(S(=O)(=O)N2CCC(OCC(=O)NCC3CCC(C(c4ccc(Cl)cc4)N(C)C)CC3)C2)c(C)c1C (centres unmarked) [Example 428] | 88 | 49 |
| COc1cc(C)c(S(=O)(=O)N2CCN(CCOCC(=O)NCC3CCC(C(c4ccc(Cl)cc4)N(C)C)CC3)CC2)c(C)c1C (centres unmarked) [Example 429] | 95 | 54 |
| COc1ccc(S(=O)(=O)N2CCC(OCC(=O)NCCC3CCC(C(c4ccc(F)cc4)N(C)C)CC3)C2)cc1OC (centres unmarked) [Example 430] | 92 | 56 |

| SMILES | 5-HT (inhibition of reuptake of serotonin, % inhibition) [1] [%] | μ (binding on the μ opioid receptor, % inhibition) [2] [%] |
| --- | --- | --- |
| CN(C)C(c1ccc(Cl)cc1)C1CCC(CCNC(=O)COC2CCN(S(=O)(=O)c3cccc(C(F)(F)F)c3)C2)CC1 (centres unmarked) [Example 431] | 93 | 45 |
| Cc1cc(C)c(S(=O)(=O)N2CCC(OCC(=O)NCC3CCC(C(c4ccc(F)cc4)N(C)C)CC3)C2)c(C)c1 (centres unmarked) [Example 432] | 82 | 56 |
| CN(C)C(c1ccc(F)cc1)C1CCC(CNC(=O)COCCN2CCN(S(=O)(=O)c3ccccc3)CC2)CC1 (centres unmarked) [Example 433] | 95 | 46 |
| CCN(CCOCC(=O)NCCC1CCC(C(c2ccc(Cl)cc2)N(C)C)CC1)S(=O)(=O)c1c(C)cc(OC)c(C)c1C (centres unmarked) [Example 434] | 82 | 46 |
| COc1cc(C)c(S(=O)(=O)N2CCCC(OCC(=O)NC3CCC(C(c4ccc(F)cc4)N(C)C)CC3)C2)c(C)c1C (centres unmarked) [Example 435] | 91 | 48 |
| COc1cc(C)c(S(=O)(=O)N(CCOCC(=O)NCCC2CCC(C(c3cccc(F)c3)N(C)C)CC2)Cc2ccccc2)c(C)c1C (centres unmarked) [Example 436] | 88 | 57 |
| CN(C)C(c1ccc(F)cc1)C1CCC(NC(=O)COCCN(C)S(=O)(=O)c2cccc(C(F)(F)F)c2)CC1 (centres unmarked) [Example 438] | 84 | 51 |
| CN(C)C(c1ccc(F)cc1)C1CCC(CNC(=O)COCCN(C)S(=O)(=O)c2ccc(OC(F)(F)F)cc2)CC1 (centres unmarked) [Example 439] | 94 | 50 |
| CN(C)C(c1ccc(Cl)cc1)C1CCC(CCNC(=O)COC2CCN(S(=O)(=O)c3ccc(F)cc3)C2)CC1 (centres unmarked) [Example 440] | 95 | 47 |
| COc1cc(C)c(S(=O)(=O)N2CCC(OCC(=O)NC3CCC(C(c4ccc(F)cc4)N(C)C)CC3)C2)c(C)c1 (centres unmarked) [Example 441] | 99 | 49 |
| CN(C)C(c1ccc(Cl)cc1)C1CCC(CCNC(=O)COCCN(C)S(=O)(=O)c2c(Cl)cc(Cl)cc2Cl)CC1 (centres unmarked) [Example 442] | 91 | 54 |
| CN(C)C(c1ccc(Cl)cc1)C1CCC(CCNC(=O)COC2CCN(S(=O)(=O)c3ccccc3)CC2)CC1 (centres unmarked) [Example 443] | 96 | 45 |
| CN(C)C(c1cccc(F)c1)C1CCC(CCNC(=O)COC2CCN(S(=O)(=O)c3ccccc3)CC2)CC1 (centres unmarked) [Example 444] | 96 | 56 |
| CN(C)C(CCc1ccccc1)C1CCC(CNC(=O)COCCN(C)S(=O)(=O)c2ccc(Cl)cc2)CC1 (centres unmarked) [Example 445] | 87 | 44 |
| CN(C)C(c1ccc(F)cc1)C1CCC(CCNC(=O)COCCN(C)S(=O)(=O)c2ccc(OC(F)(F)F)cc2)CC1 (centres unmarked) [Example 446] | 90 | 51 |
| Cc1ccc(S(=O)(=O)N2CCC(OCC(=O)NCC3CCC(C(c4ccc(F)cc4)N(C)C)CC3)C2)cc1 (centres unmarked) [Example 447] | 95 | 44 |
| Cc1ccc(S(=O)(=O)N(C)CCOCC(=O)NC2CCC(C(c3ccc(F)cc3)N(C)C)CC2)cc1 (centres unmarked) [Example 448] | 94 | 41 |
| COc1cc(C)c(S(=O)(=O)N2CCCC(OCC(=O)NCC3CCC(C(c4ccc(Cl)cc4)N(C)C)CC3)C2)c(C)c1C (centres unmarked) [Example 449] | 73 | 46 |
